Laboratory results: PubChem BioAssay (NCI)
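Cultured in 96-well plates, cells were exposed to test compound for 48 hours across five concentrations. The concentration for 50% growth inhibition is given as GI50. TGI: total growth inhibition.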

Legend:
Assay in all cases: growth of human tumour cells (NCI), 48 h
[1] = tested on: NCI-H460 lung
[2] = tested on: CCRF-CEM leukemia
[3] = tested on: SR leukemia
[4] = tested on: K-562 leukemia
[5] = tested on: HCT-116 colon
[6] = tested on: UO-31 renal
[7] = tested on: EKVX NSCLC
[8] = tested on: HCC-2998 colon
[9] = tested on: DU-145 prostate
[10] = tested on: HL-60(TB) leukemia
[11] = tested on: UACC-62 melanoma
[12] = tested on: UACC-257 melanoma
[13] = tested on: RXF 393 renal
[14] = tested on: CAKI-1 renal
[15] = tested on: BT-549 breast
[16] = tested on: KM12 colon
[17] = tested on: SF-268 CNS
[18] = tested on: A498 renal
[19] = tested on: M14 melanoma
[20] = tested on: TK-10 renal
[21] = tested on: OVCAR-8 ovarian
[22] = tested on: NCI-H522 lung
[23] = tested on: SF-539 CNS
[24] = tested on: HOP-92 NSCLC
[25] = tested on: SNB-75 CNS
[26] = tested on: MOLT-4 leukemia
[27] = tested on: T-47D breast
[28] = tested on: SK-MEL-28 melanoma
[29] = tested on: SK-OV-3 ovarian
[30] = tested on: RPMI-8226 leukemia
[31] = tested on: IGROV1 ovarian
[32] = tested on: HCT-15 colon
[33] = tested on: ACHN renal
[34] = tested on: MDA-MB-231 breast
[35] = tested on: OVCAR-3 ovarian
[36] = tested on: MDA-MB-435
[37] = tested on: HS 578T breast
[38] = tested on: SK-MEL-5 melanoma
[39] = tested on: PC-3 prostate
[40] = tested on: NCI-H226 lung
[41] = tested on: SN12C renal
[42] = tested on: SF-295 CNS
[43] = tested on: MCF7 breast
[44] = tested on: HOP-62 NSCLC
[45] = tested on: HT29 colon
[46] = tested on: A549 NSCLC
[47] = tested on: 786-0 renal
[48] = tested on: COLO 205 colon
[49] = tested on: SW-620 colon
[50] = tested on: LOX IMVI melanoma
[51] = tested on: OVCAR-4 ovarian
[52] = tested on: MALME-3M melanoma
[53] = tested on: OVCAR-5 ovarian
[54] = tested on: SNB-19 CNS
[55] = tested on: U251 CNS
[56] = tested on: NCI/ADR-RES ovarian
[57] = tested on: NCI-H23 lung
[58] = tested on: SK-MEL-2 melanoma

**Q.** What does the source list for `O=C1c2ccccc2-c2c1c1ccccc1c(=O)n2CCCN1CCN(CCCn2c3c(c4ccccc4c2=O)C(=O)c2ccccc2-3)CC1`?
**A.** GI50 [1]: > 68 µM; TGI [1]: > 100 µM; GI50 [2]: 13.8 µM; TGI [2]: > 100 µM; GI50 [3]: 0.0809 µM; TGI [3]: 17.9 µM; GI50 [4]: 42.7 µM; TGI [4]: > 100 µM; GI50 [5]: 35.3 µM; TGI [5]: > 100 µM; GI50 [6]: > 45.7 µM; TGI [6]: > 100 µM; GI50 [7]: > 100 µM; TGI [7]: > 100 µM; GI50 [8]: > 100 µM; TGI [8]: > 100 µM; GI50 [9]: 23.7 µM; TGI [9]: > 86.4 µM; GI50 [10]: 79.7 µM; TGI [10]: > 100 µM; GI50 [11]: > 100 µM; TGI [11]: > 100 µM; GI50 [12]: > 100 µM; TGI [12]: > 100 µM; GI50 [13]: 46.2 µM; TGI [13]: > 100 µM; GI50 [14]: > 100 µM; TGI [14]: > 100 µM; GI50 [15]: > 75.2 µM; TGI [15]: > 100 µM; GI50 [16]: > 100 µM; TGI [16]: > 100 µM; GI50 [17]: 25 µM; TGI [17]: > 100 µM; GI50 [18]: > 55.3 µM; TGI [18]: > 100 µM; GI50 [19]: > 100 µM; TGI [19]: > 100 µM; GI50 [20]: 22.7 µM; TGI [20]: > 70.8 µM; GI50 [21]: 15.6 µM; TGI [21]: > 100 µM; GI50 [22]: > 100 µM; TGI [22]: > 100 µM; GI50 [23]: > 70.6 µM; TGI [23]: > 100 µM; GI50 [24]: 19.9 µM; TGI [24]: 74.1 µM; GI50 [25]: > 47.7 µM; TGI [25]: > 84 µM; GI50 [26]: 0.325 µM; TGI [26]: 21.9 µM; GI50 [27]: > 100 µM; TGI [27]: > 100 µM; GI50 [28]: > 100 µM; TGI [28]: > 100 µM; GI50 [29]: > 100 µM; TGI [29]: > 100 µM; GI50 [30]: > 52.2 µM; TGI [30]: > 100 µM; GI50 [31]: > 35 µM; TGI [31]: > 100 µM; GI50 [32]: > 79.7 µM; TGI [32]: > 100 µM; GI50 [33]: 22.4 µM; TGI [33]: > 100 µM; GI50 [34]: 2.41 µM; TGI [34]: 27.4 µM; GI50 [35]: > 100 µM; TGI [35]: > 100 µM; GI50 [36]: > 100 µM; TGI [36]: > 100 µM; GI50 [37]: > 100 µM; TGI [37]: > 100 µM; GI50 [38]: > 100 µM; TGI [38]: > 100 µM; GI50 [39]: > 100 µM; TGI [39]: > 100 µM; GI50 [40]: > 76.5 µM; TGI [40]: > 100 µM; GI50 [41]: > 39.2 µM; TGI [41]: > 92 µM; GI50 [42]: 12.6 µM; TGI [42]: > 86.1 µM; GI50 [43]: > 100 µM; TGI [43]: > 100 µM; GI50 [44]: 6.41 µM; TGI [44]: 53.4 µM; GI50 [45]: > 100 µM; TGI [45]: > 100 µM; GI50 [46]: > 100 µM; TGI [46]: > 100 µM; GI50 [47]: 2.22 µM; TGI [47]: > 32 µM; GI50 [48]: > 100 µM; TGI [48]: > 100 µM; GI50 [49]: > 100 µM; TGI [49]: > 100 µM; GI50 [50]: > 88.3 µM; TGI [50]: > 100 µM; GI50 [51]: > 100 µM; TGI [51]: > 100 µM; GI50 [52]: > 57.6 µM; TGI [52]: > 100 µM; GI50 [53]: > 100 µM; TGI [53]: > 100 µM; GI50 [54]: 99.4 µM; TGI [54]: > 100 µM; GI50 [55]: 5.44 µM; TGI [55]: 18.7 µM; GI50 [56]: > 100 µM; TGI [56]: > 100 µM; GI50 [57]: 34.5 µM; TGI [57]: > 83.8 µM; GI50 [58]: > 100 µM; TGI [58]: > 100 µM
